Measurements published in the supplement of paper PMC5908809.

Tests used:
[1] = tested on: normal NK cells expanded with K562-aAPC; assay: percent inhibition of viability; higher = more inhibition; conditions: 72 h, IL-2 2.5 ng/mL
Method: (§1)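 Drug sensitivity and resistance testing on K562-aAPC-expanded normal NK cells: 5 concentrations (10-fold steps over a 10,000-fold range), 72 h at 37 °C, viability by CellTiter-Glo normalised to DMSO and benzethonium chloride controls; DSS from the fitted curve.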

DERL-7 (IL-2 2.5 ng/mL) [2] = assay: as above; conditions: 72 h
IMC-1 (IL-2 20 ng/mL) [3] = assay: as above; conditions: 72 h
KAI3 (IL-2 2.5 ng/mL) [4] = assay: as above; conditions: 72 h
KHYG-1 (IL-2 2.5 ng/mL) [5] = assay: as above; conditions: 72 h
NK-92 (IL-2 2.5 ng/mL) [6] = assay: as above; conditions: 72 h
NK-YS (IL-2 2.5 ng/mL) [7] = assay: as above; conditions: 72 h
NKL (IL-2 2.5 ng/mL) [8] = assay: as above; conditions: 72 h
SNK-6 (IL-2 2.5 ng/mL) [9] = assay: as above; conditions: 72 h
YT (IL-2 2.5 ng/mL) [10] = assay: as above; conditions: 72 h
[11] = tested on: normal primary NK cells, pool 1 (3 donors) (IL-2 2.5 ng/mL); assay: as above; conditions: 72 h
[12] = tested on: normal primary NK cells, pool 1 (3 donors), resting (IL-2 0 ng/mL); assay: as above; conditions: 72 h
[13] = tested on: normal primary NK cells, pool 2 (3 donors) (IL-2 2.5 ng/mL); assay: as above; conditions: 72 h
[14] = tested on: normal primary NK cells, pool 3 (3 donors) (IL-2 2.5 ng/mL); assay: as above; conditions: 72 h
[15] = tested on: normal NK cells expanded with K562-aAPC; assay: drug sensitivity score (DSS) (DSS units); higher = more sensitive; extreme values may be limits of the assay; conditions: 72 h; IL-2 2.5 ng/mL
Method: as §1

DERL-7 (IL-2 2.5 ng/mL) [16] = assay: as above; conditions: 72 h
IMC-1 (IL-2 20 ng/mL) [17] = assay: as above; conditions: 72 h
KAI3 (IL-2 2.5 ng/mL) [18] = assay: as above; conditions: 72 h
KHYG-1 (IL-2 2.5 ng/mL) [19] = assay: as above; conditions: 72 h
NK-92 (IL-2 2.5 ng/mL) [20] = assay: as above; conditions: 72 h
NK-YS (IL-2 2.5 ng/mL) [21] = assay: as above; conditions: 72 h
NKL (IL-2 2.5 ng/mL) [22] = assay: as above; conditions: 72 h
SNK-6 (IL-2 2.5 ng/mL) [23] = assay: as above; conditions: 72 h
YT (IL-2 2.5 ng/mL) [24] = assay: as above; conditions: 72 h
[25] = tested on: normal primary NK cells, pool 1 (3 donors) (IL-2 2.5 ng/mL); assay: as above; conditions: 72 h
[26] = tested on: normal primary NK cells, pool 1 (3 donors), resting (IL-2 0 ng/mL); assay: as above; conditions: 72 h
[27] = tested on: normal primary NK cells, pool 2 (3 donors) (IL-2 2.5 ng/mL); assay: as above; conditions: 72 h
[28] = tested on: normal primary NK cells, pool 3 (3 donors) (IL-2 2.5 ng/mL); assay: as above; conditions: 72 h

COc1cccc2c1C(=O)c1c(O)c3c(c(O)c1C2=O)C[C@@](O)(C(=O)CO)C[C@@H]3O[C@H]1C[C@H](N)[C@H](O)[C@H](C)O1 [Doxorubicin] (max concentration tested 1000 nM)
percent inhibition of viability [%]
Conditions | 0.1 nM | 1 nM | 10 nM | 100 nM | 1000 nM
DERL-7 (IL-2 2.5 ng/mL) [2] | -0.26 | -4.85 | 13.4 | 85.9 | 100
IMC-1 (IL-2 20 ng/mL) [3] | -7.6 | -2.62 | -0.06 | 88.2 | 99.8
KAI3 (IL-2 2.5 ng/mL) [4] | -17.1 | -0.05 | 19.4 | 74.9 | 89.1
KHYG-1 (IL-2 2.5 ng/mL) [5] | -8.45 | -6.72 | -0.27 | 79.3 | 98.3
NK-92 (IL-2 2.5 ng/mL) [6] | -8.55 | 11.3 | -2.45 | 64.2 | 96.6
NK-YS (IL-2 2.5 ng/mL) [7] | -8.43 | -6.33 | 14.6 | 83.5 | 95.3
NKL (IL-2 2.5 ng/mL) [8] | -17.6 | -0.29 | 89.2 | 102 | 97.3
SNK-6 (IL-2 2.5 ng/mL) [9] | 20 | 14.8 | 5.01 | 80.6 | 94.3
YT (IL-2 2.5 ng/mL) [10] | -4.73 | -5.55 | -0.81 | 69.3 | 97.2
[1] | -3.12 | -5.25 | -1.72 | 39.8 | 99.8
[11] | -9.2 | -4.36 | 4.47 | 40.8 | 96.5
[12] | -18 | -16.6 | 1.78 | 70.1 | 92.1
[13] | -14 | -6.82 | -8.6 | 37.2 | 94.4
[14] | -4.57 | -14.4 | -9.04 | 23.1 | 97.2

Conditions | drug sensitivity score
DERL-7 (IL-2 2.5 ng/mL) [16] | 17.4
IMC-1 (IL-2 20 ng/mL) [17] | 16
KAI3 (IL-2 2.5 ng/mL) [18] | 16.2
KHYG-1 (IL-2 2.5 ng/mL) [19] | 14.6
NK-92 (IL-2 2.5 ng/mL) [20] | 12.8
NK-YS (IL-2 2.5 ng/mL) [21] | 17.1
NKL (IL-2 2.5 ng/mL) [22] | 28.7
SNK-6 (IL-2 2.5 ng/mL) [23] | 15.5
YT (IL-2 2.5 ng/mL) [24] | 13.3
[15] | 10.8
[25] | 10.3
[26] | 13.3
[27] | 10.2
[28] | 8.97

COCC(=O)NC/C=C/c1ccc2ncnc(Nc3ccc(Oc4ccc(C)nc4)c(C)c3)c2c1 (max concentration tested 10000 nM)
percent inhibition of viability [%]
Conditions | 1 nM | 10 nM | 100 nM | 1000 nM | 10000 nM
DERL-7 (IL-2 2.5 ng/mL) [2] | -3.08 | -0.4 | -4.63 | 9.9 | 33
IMC-1 (IL-2 20 ng/mL) [3] | -0.96 | -1.82 | -0.25 | 1.87 | 55.9
KAI3 (IL-2 2.5 ng/mL) [4] | 16.4 | 7.76 | 7.06 | 11.1 | 64.8
KHYG-1 (IL-2 2.5 ng/mL) [5] | -2.05 | -5.21 | -2.56 | -1.27 | 29.4
NK-92 (IL-2 2.5 ng/mL) [6] | 1.59 | 8.37 | 6.53 | 22.8 | 75
NK-YS (IL-2 2.5 ng/mL) [7] | -0.22 | 0.49 | 1.46 | 4.98 | 25.6
NKL (IL-2 2.5 ng/mL) [8] | 1.03 | -1.8 | 0.69 | 8.06 | 58.8
SNK-6 (IL-2 2.5 ng/mL) [9] | -0.22 | -18.4 | -12.7 | -1.13 | 63.7
YT (IL-2 2.5 ng/mL) [10] | 3.6 | -0.32 | 0.57 | 9.46 | 48.2
[1] | -7.95 | -1.69 | -8 | -3.66 | 3.1
[11] | -12 | -6.34 | -1.36 | -3.88 | 14.2
[12] | 14.9 | 9.42 | 15.7 | 21.2 | 61
[13] | 1.3 | 6.76 | -0.67 | 11.9 | 23.1
[14] | -5.66 | 4.44 | 4.87 | 10.9 | 5.97

Conditions | drug sensitivity score
DERL-7 (IL-2 2.5 ng/mL) [16] | 2.95
IMC-1 (IL-2 20 ng/mL) [17] | 3.25
KAI3 (IL-2 2.5 ng/mL) [18] | 5.41
KHYG-1 (IL-2 2.5 ng/mL) [19] | 1.16
NK-92 (IL-2 2.5 ng/mL) [20] | 7.15
NK-YS (IL-2 2.5 ng/mL) [21] | 1.75
NKL (IL-2 2.5 ng/mL) [22] | 4.55
SNK-6 (IL-2 2.5 ng/mL) [23] | 3.37
YT (IL-2 2.5 ng/mL) [24] | 4.08
[15] | 0
[25] | 0.09
[26] | 6.9
[27] | 2.13
[28] | 0.05
